Several values for one entry are separate records, joined by “and”; a condition that tells them apart may be missing. Identical values can stand only once.
Key:
Gottingen Minipigs = test: Minipig animal observations and necropsy; assay type: in vivo, Gottingen Minipig; conditions: Animals S0001 and S0004, Group 1 males
Text: All animals appeared healthy prior to dosing and throughout the duration of the study, with the following observations noted.

rats [1] = test: Signs of anesthesia recorded during the rat pain tests; assay type: in vivo; conditions: 50 mg/kg sc via insulin pump
Experimental: Signs of anesthesia were recorded.
Day of Dosing: On the day of dosing, each animal was administered a 0.1 mL 20% suspension of Brewers Yeast subcutaneously into the sub-plantar of the right hind paw at approximately 180 minutes prior to ketamine administration. Immediately prior to ketamine administration (Group 4), 15 and 30 minutes and 1, 2, and 4 hours post administration of ketamine, each animal was assessed for a response to increasing pressure on both hind paws (Group 1 used right hind paw, Group 4 used both hind paws), using the analgesy meter. Signs of anesthesia were recorded.

rats [2] = conditions: 50 mg/kg; cited from earlier work
male Sprague-Dawley rats [3] = conditions: rat, in vivo
male Sprague-Dawley rats [4] = test: Writhing test (acetic acid-induced abdominal spasm); assay type: in vivo, rat
Experimental: In the abdominal spasm (acetic acid-induced writhing) test, acetic acid is injected into the peritoneal cavity where it directly activates nociceptors and results in an abdominal writhing response. This writhing response is characterized by contraction of abdominal muscles followed by an extension of the hind limbs (Collier et al., 1968). This pain-behavior is considered reflexive and evidence of visceral pain associated with visceral chemoreceptors (Hammond, 1989). […] It is widely accepted that this model can be used as a screening method to determine the effects of drugs on inflammatory induced nociception (Vogel et al., 1997; Chiba et al., 2008). Although it can be used as a screening tool, it is unclear as to which clinical conditions the use of a chemical irritant represents (Gregory et al., 2013).
Eighteen male Sprague-Dawley rats were obtained from Charles River, Margate, United Kingdom, and were used for dosing. Animals weighed between 319 and 419 g on the day of dosing. Eight male Han Wister rats were obtained from Charles River, Margate, United Kingdom and used for Group 4. Animals weighed between 381 and 504 g on the day of dosing. The animals were assessed according to Table 1.
Animals were dosed subcutaneously via a motorized insulin pump.
At 1 hour post administration of ketamine, each animal was administered a 1 mL intraperitoneal injection of 1% acetic acid. Animals were immediately placed into individual observation chambers, and the number of abdominal spasms elicited over the subsequent 25-minute period was recorded.
Comparisons were made to background data.

[5] = Minipig pharmacokinetics study (BB-1802), single subcutaneous infusion via insulin pump, plasma LC-MS/MS; conditions: for half-life / Tmax: Gottingen, minipig, plasma, sc; for Tmax: mean Tmax
Experimental: The purpose of this study was to determine the pharmacokinetics of ketamine after a single subcutaneous infusion dose to minipigs.
Dose Administration: In each phase, animals received a single subcutaneous infusion (up to 18 hours) via insulin pump (Medtronic MiniMed Paradigm® Insulin Pump). The infusion pump was programmed in accordance with a Study Specific Procedure, and the infusion was continuously monitored for the duration of the dose. […] The pump was inspected, re-secured to the animal, and the dose continued.
For each phase, blood (approximately 2 mL) was collected via jugular vein catheter into tubes containing K3EDTA from each animal predose and at approximately 0.083, 0.25, 0.5, 1, 2, 4, 8, 9 (Phases 1 through 3 only), 10 (Phases lthrough 3 only), 12, 15 (Phases 4 and 5 only), 18 (Phases 4 and 5 only), 20 (Phases 4 and 5 only), 22 (Phases 4 and 5 only), and 24 hours postdose, with the following exceptions in Phase 3 for Animal 50004 (Group 1 male). […] Times were based on the start of the infusion.
Plasma samples were analyzed for concentrations of ketamine using an established liquid chromatography/mass spectrometry (LC-MS/MS) method.
Noncompartmental analysis (1) was applied to the individual plasma ketamine concentration data for males and females. The following parameters were estimated whenever possible:
Nominal doses and sampling times were used. […] Embedded zeros were excluded from pharmacokinetic analysis.

## CNC1(c2ccccc2Cl)CCCCC1=O (stereo not drawn) [ketamine]
Gottingen Minipigs
  relation of adverse effects (euthanized animals, necropsy) to the test article: not test article related
Rats [1]
  Signs of anesthesia: reduced righting reflex, body tone, and ataxia up to 1 hour post-dose
Rats [2]
  relief of evoked pain 24 hours after administration: no relief of evoked pain
Male Sprague-Dawley rats [3]
  Time (s) taken for response, individual animals: 4.2 s (2×) and 5.2 s (3×) and 5.9 s and 5.1 s and 7.7 s and 6.2 s (2×) and 4.4 s and 7.0 s and 7.5 s and 5.5 s and 6.4 s (2×) and 7.4 s (3×) and 6.5 s (2×) and 3.5 s and 5.8 s (3×) and 4.3 s and 4.9 s and 6.1 s and 5.7 s and 7.6 s
  Time (s) taken for response, mean: 5.6 s and 5.9 s and 6.3 s
  group mean reaction time (longest): 6.3 s
  group mean reaction time (shortest): 5.6 s
  latency of tail flick, in words: slight increase in latency of tail flick at all post-dose time points
  magnitude of the increase in time taken for pain to be perceived: 1.1 s
  maximum effect, increase in time to tail flick: 21.4%
Male Sprague-Dawley rats [4]; 50 mg/kg sc, 1 hour after ketamine, animals R0201-R0206
  Number of acetic acid-induced Abdominal Spasms, individual animals: 0 and 4 and 3 and 5 and 1 and 8
Male Sprague-Dawley rats [4]; ketamine infusion versus baseline of 29/25 min
  reduction of elicited spasms from baseline values: 86%
Male Sprague-Dawley rats [4]; ketamine infusion, baseline 29/25 min
  number of elicited spasms, average: 4 /25 min
[5]; 8 mg/kg
  half-life: 5.76 h
[5]; 12 mg/kg
  half-life: 5 h
[5]; 18 mg/kg
  half-life: 3.12 h
[5]; Phase 1
  mean concentration values measurable through (post the start of infusion): 12 h
[5]; Phase 5: 18 mg/kg, 1 mg/kg/hr, 18-hour SC infusion
  mean Css: 700 ng/mL
[5]; Phases 1 through 4
  steady-state, in words: did not appear to reach a steady-state
[5]; Phases 3 through 5
  mean concentration values measurable through (post the start of infusion): 24 h
[5]; all animals
  time to detectible plasma ketamine levels after initiating subcutaneous infusion: ≤ 5 min
[5]; dose level from 4 to 18 mg/kg
  exposure to ketamine against dose level: generally increased with the increase in dose level
[5]; female, 18 mg/kg, Phases 4 and 5: 18 mg/kg, 1 mg/kg/hr, 18-hour SC infusion, female
  Tmax: 13.5 h
[5]; male, 8 mg/kg, Phase 2: 8 mg/kg, 1 mg/kg/hr, 8-hour SC infusion, males
  Tmax: 4.5 h
[5]; male, 12 mg/kg, Phase 3: 12 mg/kg, 1.5 mg/kg/hr, 8-hour SC infusion, males
  Tmax: 2.04 h
[5]; males, dose level from 4 to 8 mg/kg
  dose proportionality of the increases in mean Cmax and AUC0-24: less than dose proportional
[5]; males, dose level from 8 to 12 mg/kg
  dose proportionality of the increases in mean Cmax and AUC0-24: greater than dose proportional
